Assay results reported in patent publication US20160122268A1, “PROCESS FOR SIMULTANEOUS EXTRACTION AND SEPARATION OF ESTERIFIED AND UNESTERIFIED MONOHYDROXYCAROTENOIDS” (UNIVERSITY OF MARYLAND, COLLEGE PARK, priority 2013, published 2016).

Test: Solubility in hydrocarbon solvents (pentane or hexane), observed in Soxhlet extraction
Type: physicochemical
Settings: boiling pentane or hexane
Source text: In an alternative process, Soxhlet extraction of mono- and dihydroxycarotenoids can also be carried out to separate these carotenoids. As mentioned earlier, esterified forms of lutein and zeaxanthin are well solubilized in hydrocarbon solvents such as n-hexane and n-pentane, whereas their unesterified parent compounds, […], show a remarkable difference in their solubility behavior and remain insoluble. In fact, […] are considerably more soluble in n-pentane or n-hexane than lutein and zeaxanthin.
Similarly, a mixture of zeaxanthin and β-cryptoxanthin can be separated by Soxhlet extraction with n-pentane or n-hexane due to their differential solubility in hydrocarbon solvents.
100 mg of 1:1 mixture of (3R)-β-cryptoxanthin (13) and (3R,3′R)-zeaxanthin (5) was subjected to Soxhlet extraction and these unesterified carotenoids were extracted with boiling pentane (b.p.=36° C.) or hexane (b.p.=69° C.). […] After 4 hours, the composition of the extract was: (3R)-β-cryptoxanthin (13) (85%) and (3R,3′R)-zeaxanthin (5) (15%). In a subsequent Soxhlet extraction with pentane or hexane, (3R)-β-cryptoxanthin (13) was obtained in 98% purity.
For `CC1=C(/C=C/C(C)=C/C=C/C(C)=C/C=C/C=C(C)/C=C/C=C(C)/C=C/C2=C(C)C[C@@H](O)CC2(C)C)C(C)(C)C[C@H](O)C1` [compound 5, (3R,3′R)-zeaxanthin], the “solubility in hydrocarbon solvents” value was “only sparingly soluble”. In the case of `CC(C=CC=C(C)C=CC1=C(C)CC(O)CC1(C)C)=CC=CC=C(C)C=CC=C(C)C=CC1C(C)=CCCC1(C)C` [compound 9, (3R,6′R)-α-cryptoxanthin], the “solubility in hydrocarbon solvents” value is reported as “much greater solubility than lutein”. In the case of `CC1=C(/C=C/C(C)=C/C=C/C(C)=C/C=C/C=C(C)/C=C/C=C(C)/C=C/C2=C(C)C[C@@H](O)CC2(C)C)C(C)(C)CCC1` [compound 13, (3R)-β-cryptoxanthin], the “solubility in hydrocarbon solvents” value is reported as “significantly better solubility”.
